Patent publication US8975250B2, “5 oxo-5,8-dihydropyrido[2,3-d]pyrimidine derivatives as CaMKII kinase inhibitors for treating cardiovascular diseases” (SANOFI, priority 2010, dated 2015)
Where a name gives a salt, the structure may show the parent alone.

Tested on: not given
Assay: not given
Details: not given

SMILES | melting point
CCn1c(N)c(C(N)=O)c(=O)c2cnc(Nc3cccc(N4CCOCC4)c3)nc21 [compound 17, 7-Amino-8-ethyl-2-(3-morpholin-4-ylphenylamino)-5-oxo-5,8-dihydropyrido[2,3-d]pyrimidine-6-carboxamide] | 195 °C
CCn1c(N)c(C(N)=O)c(=O)c2cnc(Nc3ccc([C@@H]4C[C@H]4N(C)C)cc3)nc21 (racemic) (as salt: HCl) [compound 97, (±)-7-Amino-2-trans-[4-(2-dimethylaminocyclopropyl)phenylamino]-8-ethyl-5-oxo-5,8-dihydropyrido[2,3-d]pyrimidine-6-carboxamide] | 208 to 210 °C (dec.)
CCn1c(N)c(C(N)=O)c(=O)c2cnc(Nc3ccc(C4CCN(C5CC5)CC4)cc3OC)nc21 (as salt: HCl) [compound 29, 7-Amino-2-[4-(1-cyclopropylpiperid-4-yl)-2-methoxyphenylamino]-8-ethyl-5-oxo-5,8-dihydropyrido[2,3-d]pyrimidine-6-carboxamide] | 226 to 228 °C
COc1cc(C2CCNCC2)ccc1Nc1ncc2c(=O)c(C(N)=O)c(N)n(-c3ccccc3)c2n1 (as salt: HCl) [compound 113, 7-Amino-2-(2-methoxy-4-piperid-4-ylphenylamino)-5-oxo-8-phenyl-5,8-dihydropyrido[2,3-d]pyrimidine-6-carboxamide] | 228 °C (dec.)
CCN1CCN(c2ccc(Nc3ncc4c(=O)c(C(N)=O)c(N)n(CC(C)(C)O)c4n3)c(OC)c2)CC1 (as salt: HCl) [compound 129, 7-Amino-2-[4-(4-ethylpiperazin-1-yl)-2-methoxyphenylamino]-8-(2-hydroxy-2-methylpropyl)-5-oxo-5,8-dihydropyrido[2,3-d]pyrimidine-6-carboxamide] | 222 °C (dec.)
CCn1c(N)c(C(N)=O)c(=O)c2cnc(Nc3ccc(N4CCN(C5CC5)CC4)cc3OC(F)F)nc21 (as salt: HCl) [compound 33, 7-Amino-2-[4-(4-cyclopropylpiperazin-1-yl)-2-difluoromethoxyphenylamino]-8-ethyl-5-oxo-5,8-dihydropyrido[2,3-d]pyrimidine-6-carboxamide] | 204 to 206 °C
NC(=O)c1c(N)n(C2CCCC2)c2nc(Nc3ccc(N4CCOCC4)cc3)ncc2c1=O [compound 8, 7-Amino-8-cyclopentyl-2-(4-morpholin-4-ylphenylamino)-5-oxo-5,8-dihydropyrido[2,3-d]pyrimidine-6-carboxamide] | 265 °C
COCCN1CCC(c2ccc(Nc3ncc4c(=O)c(C(N)=O)c(N)n(CC(C)(C)O)c4n3)c(OC)c2)CC1 (as salt: HCl) [compound 133, 7-Amino-8-(2-hydroxy-2-methylpropyl)-2-{2-methoxy-4-[1-(2-methoxyethyl)piperid-4-yl]phenylamino}-5-oxo-5,8-dihydropyrido[2,3-d]pyrimidine-6-carboxamide] | 170 °C (dec.)
COc1cc(C2CCN(C)CC2)ccc1Nc1ncc2c(=O)c(C(N)=O)c(N)n(-c3ccccc3)c2n1 (as salt: HCl) [compound 134, 7-Amino-2-[2-methoxy-4-(1-methylpiperid-4-yl)phenylamino]-5-oxo-8-phenyl-5,8-dihydropyrido[2,3-d]pyrimidine-6-carboxamide] | 256 °C (dec.)
NCCCn1c(N)c(C(N)=O)c(=O)c2cnc(Nc3ccc(N4CCOCC4)cc3)nc21 (as salt: HCl) [compound 81, 7-Amino-8-(3-aminopropyl)-2-(4-morpholin-4-ylphenylamino)-5-oxo-5,8-dihydropyrido[2,3-d]pyrimidine-6-carboxamide] | 250 °C
CCn1c(N)c(C(N)=O)c(=O)c2cnc(Nc3ccc(CCN4CCCCC4)cc3)nc21 (as salt: HCl) [compound 65, 7-Amino-8-ethyl-5-oxo-2-[4-(2-piperid-1-ylethyl)phenylamino]-5,8-dihydropyrido[2,3-d]pyrimidine-6-carboxamide] | 216 °C
CCn1c(N)c(C(N)=O)c(=O)c2cnc(Nc3ccc(CCO)cc3)nc21 [compound 55, 7-Amino-8-ethyl-2-[4-(2-hydroxyethyl)phenylamino]-5-oxo-5,8-dihydropyrido[2,3-d]pyrimidine-6-carboxamide] | 289 °C
COc1cc(C2CCN(CCC(F)(F)F)CC2)ccc1Nc1ncc2c(=O)c(C(N)=O)c(N)n(CC(C)(C)O)c2n1 (as salt: HCl) [compound 130, 7-Amino-8-(2-hydroxy-2-methylpropyl)-2-{2-methoxy-4-[1-(3,3,3-trifluoropropyl)piperid-4-yl]phenylamino}-5-oxo-5,8-dihydropyrido[2,3-d]pyrimidine-6-carboxamide] | > 260 °C
CCn1c(N)c(C(N)=O)c(=O)c2cnc(Nc3ccc(C4CCN(CCC(F)(F)F)CC4)cc3OC)nc21 (as salt: HCl) [compound 35, 7-Amino-8-ethyl-2-{2-methoxy-4-[1-(3,3,3-trifluoropropyl)piperid-4-yl]phenylamino}-5-oxo-5,8-dihydropyrido[2,3-d]pyrimidine-6-carboxamide] | 199 °C
CCN1CCN(c2cc(F)c(Nc3ncc4c(=O)c(C(N)=O)c(N)n(CC)c4n3)c(OC)c2)CC1 (as salt: HCl) [compound 28, 7-Amino-8-ethyl-2-[4-(4-ethylpiperazin-1-yl)-2-fluoro-6-methoxyphenylamino]-5-oxo-5,8-dihydropyrido[2,3-d]pyrimidine-6-carboxamide] | > 260 °C
CCn1c(N)c(C(N)=O)c(=O)c2cnc(Nc3ccc(O)cc3)nc21 [compound 1, 7-Amino-8-ethyl-2-(4-hydroxyphenylamino)-5-oxo-5,8-dihydropyrido[2,3-d]pyrimidine-6-carboxamide] | > 260 °C

Target: CaMKIIδ (Homo sapiens (Human), UniProt Q13557)
Assay: radioactive test on the recombinant CaMKIIδ enzyme (ATP-γ33P incorporation into Autocamtide-2)
Assay type: biochemical
Details: recombinant CaMKIIδ 0.37 nM, 10 μM ATP, 100 μM Autocamtide-2, two hours at 37°C
Method: The compounds according to the invention were tested in vitro for their capacity to inhibit the kinase function of calcium/calmodulin-dependent protein kinase II delta (CaMKIIδ). CaMKIIδis an intracellular serine/threonine kinase. It has an enzymatic domain that is capable of using ATP to autophosphorylate. Its kinase function allows it to use ATP to phosphorylate its substrates on the serines and/or threonines. Several enzymatic and cellular tests are used to evaluate the activity of the products with respect to the kinase function of CaMKIIδ. The kinase activity of CaMKIIδis evaluated by means of a radioactive test on the recombinant CaMKIIδenzyme. The amount of ATP-γ33P incorporated into the specific substrate Autocamtide-2 during its phosphorylation by CaMKIIδis measured. The effect of the products is quantified by the concentration of product that inhibits the total activity of CaMKIIδby 50% (50% inhibitory concentration=IC50). For the determination of the IC50 values, the product is diluted in 100% of DMSO to obtain a 10 mM stock solution. The concentration range tested during the radioactive test ranges from 3 to 10 000 nM with a final concentration in the test of 1% DMSO. This concentration range may, for the most powerful compounds, be extended to 0.1 nM. On the day of the operation, 5 μl of the compounds are deposited in each well of a 96-well plate at 10 times the concentration of that to be tested. Each concentration is tested in duplicate on the same plate. The negative controls (0% activity) and positive controls (100% activity) receive 5 μL of 10% DMSO solution. A reaction premix containing the 1×kinase buffer and an ATP-MgCl2 mixture is prepared. Extemporaneously, a mixture containing the substrate Autocamtide-2 (100 μM) with calmodulin and calcium, and the solution of enzyme CaMKIIδ, is added to the premix. 45 μL of this mixture are immediately deposited per well. The final concentrations in the 50 μL final volume are as follows: compound 1X, 0.37 nM of CaMKIIδ(Invitrogen reference PV3373), 10 μM of ATP (1 μCi per well), 100 μM of Autocamtide-2, […] of calmodulin, 15 mM MgCl2, 400 μM CaCl2, 10 mM β-glycerophosphate, and 1% of DMSO. Two negative controls are prepared on each plate, a first without enzyme CaMKIIδ, and a second without substrate Autocamtide-2; these two elements are replaced with water. The plate is then incubated for two hours at 37°C. with gentle shaking. The reaction is stopped by adding 20 μL per well of H3PO4 solution. The 50 μL of each well are transferred onto a Whatman P81 filter. After rinsing twice with H3PO4 (150 μl/well per wash), followed by two rinses with 150 μL of H2O, 50 μL of scintillant are added per well. The amount of phosphorylated substrate is detected by means of a liquid scintillation counter. The inhibitory activity toward CaMKIIδis given by the concentration that inhibits 50% of the activity of CaMKIIδ. The IC50 values are generally between 10 μM and 10^−5 μM. In the table below, the IC50 values measured for several compounds (I) of the invention are presented as examples.

SMILES | IC50 [nM]
CN(C)Cc1ccc(Nc2ncc3c(=O)c(C(N)=O)c(N)n(CC(F)(F)F)c3n2)cc1 [compound 60, 7-Amino-2-(4-dimethylaminomethylphenylamino)-5-oxo-8-(2,2,2-trifluoroethyl)-5,8-dihydropyrido[2,3-d]pyrimidine-6-carboxamide] | 663
CCn1c(N)c(C(N)=O)c(=O)c2cnc(Nc3ccc(N4CCC(N5CCCC5)CC4)c(Cl)c3)nc21 [compound 61, 7-Amino-2-[3-chloro-4-(4-pyrrolidin-1-ylpiperid-1-yl)phenylamino]-8-ethyl-5-oxo-5,8-dihydropyrido[2,3-d]pyrimidine-6-carboxamide] | 8
CCn1c(N)c(C(N)=O)c(=O)c2cnc(Nc3cccc(CN(C)C)c3)nc21 [compound 78, 7-Amino-2-(3-dimethylaminomethylphenylamino)-8-ethyl-5-oxo-5,8-dihydropyrido[2,3-d]pyrimidine-6-carboxamide] | 268
CCc1cc(N2CCN(C3CC3)CC2)ccc1Nc1ncc2c(=O)c(C(N)=O)c(N)n(CC)c2n1 [compound 96, 7-Amino-2-[4-(4-cyclopropylpiperazin-1-yl)-2-ethylphenylamino]-8-ethyl-5-oxo-5,8-dihydropyrido[2,3-d]pyrimidine-6-carboxamide] | 396
CCn1c(N)c(C(N)=O)c(=O)c2cnc(Nc3ccc(C4CCN(C5CC5)CC4)cc3OC)nc21 [compound 29, 7-Amino-2-[4-(1-cyclopropylpiperid-4-yl)-2-methoxyphenylamino]-8-ethyl-5-oxo-5,8-dihydropyrido[2,3-d]pyrimidine-6-carboxamide] | 17
CCn1c(N)c(C(N)=O)c(=O)c2cnc(Nc3ccc(C(=O)N4CCN(C)CC4)cc3)nc21 [compound 4, 7-Amino-8-ethyl-2-[4-(4-methylpiperazine-1-carbonyl)phenylamino]-5-oxo-5,8-dihydropyrido[2,3-d]pyrimidine-6-carboxamide] | 260
CCn1c(N)c(C(N)=O)c(=O)c2cnc(Nc3ccc(C4CCN(CCC(F)(F)F)CC4)cc3OC)nc21 [compound 35, 7-Amino-8-ethyl-2-{2-methoxy-4-[1-(3,3,3-trifluoropropyl)piperid-4-yl]phenylamino}-5-oxo-5,8-dihydropyrido[2,3-d]pyrimidine-6-carboxamide] | 22
